The record followed here is US8283353B2, “Fused ring compound and use thereof” (Takeda Pharmaceutical Company Limited, priority 2009, dated 2012).

One assay deals with T1, human AT1 receptor (Homo sapiens, UniProt P30556).
T1 construct: expressed in transfected cells; membrane fraction
T1 sequence (P30556 1-359): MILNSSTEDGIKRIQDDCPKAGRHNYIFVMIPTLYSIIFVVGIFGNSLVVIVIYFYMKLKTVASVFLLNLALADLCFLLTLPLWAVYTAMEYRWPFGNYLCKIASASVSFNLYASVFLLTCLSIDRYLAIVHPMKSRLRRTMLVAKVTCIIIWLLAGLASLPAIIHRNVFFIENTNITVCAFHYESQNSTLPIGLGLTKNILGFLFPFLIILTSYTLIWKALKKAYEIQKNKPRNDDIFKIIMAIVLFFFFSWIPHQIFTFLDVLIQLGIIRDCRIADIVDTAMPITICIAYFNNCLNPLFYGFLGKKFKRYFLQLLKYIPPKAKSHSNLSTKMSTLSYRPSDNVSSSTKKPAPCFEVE
Briefly: AT1 receptor antagonistic activity: [125I]-angiotensin II binding assay on human AT1 receptor-expressing CHO-K1 cellular membrane fraction. To be noted: 22.5 pM [125I]-angiotensin II, 1 hr room temperature. The procedure, abridged:
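Competition binding used radiolabelled angiotensin II on stably transfected CHO-K1 membrane fractions in Tris pH 7.4/MgCl2 buffer, optionally containing 0.3 mg/mL fatty acid-free BSA, 1 hr at room temperature. Filtration onto GF/C separated bound tracer, and nonspecific binding was measured with candesartan.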

A further assay has as its target T2, human PPARγ (Homo sapiens, UniProt P37231).
T2 construct: expressed in transfected cells
T2 sequence (P37231 1-477 isoform P37231-2): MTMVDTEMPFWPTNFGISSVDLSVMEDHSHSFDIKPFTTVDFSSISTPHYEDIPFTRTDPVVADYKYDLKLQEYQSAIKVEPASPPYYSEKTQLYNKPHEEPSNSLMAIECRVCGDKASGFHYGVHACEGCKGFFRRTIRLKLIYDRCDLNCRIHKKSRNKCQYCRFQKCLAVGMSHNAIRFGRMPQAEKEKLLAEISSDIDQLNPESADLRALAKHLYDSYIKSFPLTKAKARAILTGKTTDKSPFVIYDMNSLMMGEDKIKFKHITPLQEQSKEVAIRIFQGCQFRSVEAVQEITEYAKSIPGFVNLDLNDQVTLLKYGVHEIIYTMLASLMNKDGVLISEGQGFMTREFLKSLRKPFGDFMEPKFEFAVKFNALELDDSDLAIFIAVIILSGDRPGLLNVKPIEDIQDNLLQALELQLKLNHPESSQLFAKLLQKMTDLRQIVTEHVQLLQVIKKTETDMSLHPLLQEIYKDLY
T2 sequence (P19793 1-462 partner): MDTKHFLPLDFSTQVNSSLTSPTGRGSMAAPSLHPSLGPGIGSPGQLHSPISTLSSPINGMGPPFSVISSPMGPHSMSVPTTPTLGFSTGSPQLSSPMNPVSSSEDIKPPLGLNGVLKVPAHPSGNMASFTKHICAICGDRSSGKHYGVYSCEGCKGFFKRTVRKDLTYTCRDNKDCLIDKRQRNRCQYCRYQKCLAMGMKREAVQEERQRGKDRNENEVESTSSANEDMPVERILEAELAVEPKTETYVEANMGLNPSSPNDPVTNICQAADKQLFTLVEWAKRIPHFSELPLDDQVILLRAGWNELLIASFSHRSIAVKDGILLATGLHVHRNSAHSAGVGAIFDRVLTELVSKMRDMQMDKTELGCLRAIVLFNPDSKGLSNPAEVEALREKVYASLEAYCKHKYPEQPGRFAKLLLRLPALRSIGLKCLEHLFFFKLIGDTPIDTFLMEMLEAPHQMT
In words: PPARγ agonistic activity: luciferase reporter assay in PPARγ:RXRα:4ERPP/CHO-K1 cells. To be noted: CHO-K1, test compound 10^−6 M; luciferase activity of control compound X (1 μM) = 100%, non-administration group = 0%. The format is cell-based. The procedure, abridged: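 CHO-K1 cells stably carrying hPPARγ/RXRα and a 4ERPP luciferase reporter, dosed with test compound for 1 day at 37 °C in Ham's F12 with 0.1% fatty acid-free BSA. Luciferase read by luminescence; activity given as % of 1 μM control compound X (100%) versus untreated (0%).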

Consider `CCCc1c(Cc2ccc(-c3ccccc3-c3noc(=O)[nH]3)cc2)c(=O)n(C2CCC(OC)CC2)c2ncnn12` (stereo not drawn) [Example 152, 4-(4-methoxycyclohexyl)-6-{[2′-(5-oxo-4,5-dihydro-1,2,4-oxadiazol-3-yl)biphenyl-4-yl]methyl}-7-propyl[1,2,4]triazolo[1,5-a]pyrimidin-5(4H)-one], for which the IC50 (usually the concentration that inhibits the measured activity by half) on human AT1 receptor came to 2.4 nM. In addition, the activation at 1 µM on human PPARγ came to 39%.
On human AT1 receptor, `CCCc1c(Cc2ccc(-c3ccccc3-c3noc(=O)[nH]3)cc2)c(=O)n([C@H]2CC[C@H](OCC(C)(C)O)CC2)c2nc(C)nn12` [Example 296, 4-[trans-4-(2-hydroxy-2-methylpropoxy)cyclohexyl]-2-methyl-6-{[2′-(5-oxo-4,5-dihydro-1,2,4-oxadiazol-3-yl)biphenyl-4-yl]methyl}-7-propyl[1,2,4]triazolo[1,5-a]pyrimidin-5(4H)-one] displayed a 50% inhibitory concentration (IC50) of 1.7 nM. The compound also showed an activation at 1 µM on human PPARγ of 29%.
The like results for `CCCc1c(Cc2ccc(-c3ccccc3-c3noc(=O)[nH]3)cc2)c(=O)n([C@H]2CC[C@@H](Oc3ccc(OC)cc3)CC2)c2ncnn12` [Example 272, 4-[cis-4-(4-methoxyphenoxy)cyclohexyl]-6-{[2′-(5-oxo-4,5-dihydro-1,2,4-oxadiazol-3-yl)biphenyl-4-yl]methyl}-7-propyl[1,2,4]triazolo[1,5-a]pyrimidin-5(4H)-one] were, in that order, 2.8 nM and 28%.
The compound `CCCCc1c(Cc2ccc(-c3ccccc3-c3noc(=O)[nH]3)cc2)c(=O)n([C@H]2CC[C@H](OCC(C)O)CC2)c2ccnn12` (relative stereo) [Example 436, 7-butyl-4-[trans-4-(2-hydroxypropoxy)cyclohexyl]-6-{[2′-(5-oxo-4,5-dihydro-1,2,4-oxadiazol-3-yl)biphenyl-4-yl]methyl}pyrazolo[1,5-a]pyrimidin-5(4H)-one] had a half-inhibitory concentration (IC50) at human AT1 receptor of 1.8 nM. On human PPARγ, this compound gave an activation at 1 µM of 32%.
As to `CCCc1c(Cc2ccc(-c3ccccc3-c3noc(=O)[nH]3)cc2)c(=O)n([C@H]2CC[C@H](OC(C)C(C)(C)O)CC2)c2ncnn12` (single isomer, unassigned) [Example 319, 4-[trans-4-(2-hydroxy-1,2-dimethylpropoxy)cyclohexyl]-6-{[2′-(5-oxo-4,5-dihydro-1,2,4-oxadiazol-3-yl)biphenyl-4-yl]methyl}-7-propyl[1,2,4]triazolo[1,5-a]pyrimidin-5(4H)-one (retention time: long)], the half-maximal inhibitory concentration (IC50) on human AT1 receptor amounted to 2 nM. For the same compound, the activation at 1 µM on human PPARγ came to 16%.
Regarding `CCCc1c(Cc2ccc(-c3ccccc3-c3noc(=O)[nH]3)cc2F)c(=O)n([C@H]2CC[C@H](OC3(C(C)(C)O)CC3)CC2)c2ncnn12` [Example 362, 6-{[3-fluoro-2′-(5-oxo-4,5-dihydro-1,2,4-oxadiazol-3-yl)biphenyl-4-yl]methyl}-4-(trans-4-{[1-(1-hydroxy-1-methylethyl)cyclopropyl]oxy}cyclohexyl)-7-propyl[1,2,4]triazolo[1,5-a]pyrimidin-5(4H)-one], the IC50 at human AT1 receptor was found to be 2.5 nM. In addition, on human PPARγ, the activation at 1 µM came to 26%.
On human AT1 receptor, `CCCc1c(Cc2ccc(-c3ccccc3-c3noc(=O)[nH]3)cc2F)c(=O)n([C@H]2CC[C@H](OC(C)C(O)(CF)CF)CC2)c2ncnn12` (stereo partly drawn) [Example 364, 4-{trans-4-[3-fluoro-2-(fluoromethyl)-2-hydroxy-1-methylpropoxy]cyclohexyl}-6-{[3-fluoro-2′-(5-oxo-4,5-dihydro-1,2,4-oxadiazol-3-yl)biphenyl-4-yl]methyl}-7-propyl[1,2,4]triazolo[1,5-a]pyrimidin-5(4H)-one] registered an IC50 of 2.8 nM. Also, on human PPARγ, the activation at 1 µM amounted to 29%.
The like results for `CCCc1c(Cc2ccc(-c3ccccc3-c3noc(=O)[nH]3)cc2)c(=O)n([C@H]2CC[C@](C)(OCC(C)(C)O)CC2)c2ncnn12` [Example 385, 4-[trans-4-(2-hydroxy-2-methylpropoxy)-4-methylcyclohexyl]-6-{[2′-(5-oxo-4,5-dihydro-1,2,4-oxadiazol-3-yl)biphenyl-4-yl]methyl}-7-propyl[1,2,4]triazolo[1,5-a]pyrimidin-5(4H)-one] were, in that order, 2 nM and 23%.
As to `CCCc1c(Cc2ccc(-c3ccccc3-c3noc(=O)[nH]3)cc2)c(=O)n([C@H]2CC[C@H](OC(CC)C(C)(C)O)CC2)c2ncnn12` (stereo partly drawn) [Example 348, 4-[trans-4-(1-ethyl-2-hydroxy-2-methylpropoxy)cyclohexyl]-6-{[2′-(5-oxo-4,5-dihydro-1,2,4-oxadiazol-3-yl)biphenyl-4-yl]methyl}-7-propyl[1,2,4]triazolo[1,5-a]pyrimidin-5(4H)-one], the IC50 at human AT1 receptor is 1.9 nM. The compound further yielded an activation at 1 µM at human PPARγ of 19%.
Turning to `CCCc1c(Cc2ccc(-c3ccccc3-c3noc(=O)[nH]3)cc2)c(=O)n(Cc2ccc(F)cc2)c2ncnn12` [Example 4, 4-(4-fluorobenzyl)-6-{[2′-(5-oxo-4,5-dihydro-1,2,4-oxadiazol-3-yl)biphenyl-4-yl]methyl}-7-propyl[1,2,4]triazolo[1,5-a]pyrimidin-5(4H)-one], the IC50 at human AT1 receptor is 2.6 nM. For the same compound, on human PPARγ, the activation at 1 µM was determined as 39%.
The like results for `CCCCc1c(Cc2ccc(-c3ccccc3-c3noc(=O)[nH]3)cc2)c(=O)n([C@@H]2C[C@@H](C)O[C@@H](C)C2)c2ncnn12` [Example 138, 7-butyl-4-[(2R,4s,6S)-2,6-dimethyltetrahydro-2H-pyran-4-yl]-6-{[2′-(5-oxo-4,5-dihydro-1,2,4-oxadiazol-3-yl)biphenyl-4-yl]methyl}[1,2,4]triazolo[1,5-a]pyrimidin-5(4H)-one] were, in that order, 1.3 nM and 8%.
As to `CCCc1c(Cc2ccc(-c3ccccc3-c3noc(=O)[nH]3)cc2)c(=O)n([C@H]2CC[C@H](c3cnco3)CC2)c2ncnn12` [Example 184, 4-[trans-4-(1,3-oxazol-5-yl)cyclohexyl]-6-{[2′-(5-oxo-4,5-dihydro-1,2,4-oxadiazol-3-yl)biphenyl-4-yl]methyl}-7-propyl[1,2,4]triazolo[1,5-a]pyrimidin-5(4H)-one], at human AT1 receptor, the IC50 was 2.5 nM. This compound showed an activation at 1 µM on human PPARγ of 41%.
Regarding `CCCc1c(Cc2ccc(-c3ccccc3-c3noc(=O)[nH]3)cc2)c(=O)n([C@H]2CC[C@](C)(OCCO)CC2)c2ncnn12` [Example 183, 4-[trans-4-(2-hydroxyethoxy)-4-methylcyclohexyl]-6-{[2′-(5-oxo-4,5-dihydro-1,2,4-oxadiazol-3-yl)biphenyl-4-yl]methyl}-7-propyl[1,2,4]triazolo[1,5-a]pyrimidin-5(4H)-one], on human AT1 receptor, the IC50 came out at 2.5 nM. The compound further gave an activation at 1 µM on human PPARγ of 30%.
`CCCc1c(Cc2ccc(-c3ccccc3-c3noc(=O)[nH]3)c(C)c2)c(=O)n([C@H]2CC[C@H](OCC(C)(C)O)CC2)c2nc(C)nn12` [Example 155, 4-[trans-4-(2-hydroxy-2-methylpropoxy)cyclohexyl]-2-methyl-6-{[2-methyl-2′-(5-oxo-4,5-dihydro-1,2,4-oxadiazol-3-yl)biphenyl-4-yl]methyl}-7-propyl[1,2,4]triazolo[1,5-a]pyrimidin-5(4H)-one] showed an IC50 at human AT1 receptor of 1.6 nM. At human PPARγ, the activation at 1 µM stood at 18%.
Turning to `CCCc1c(Cc2ccc(-c3ccccc3-c3noc(=O)[nH]3)cc2)c(=O)n([C@H]2CC[C@@H](OCCO)CC2)c2ncnn12` [Example 163, 4-[cis-4-(2-hydroxyethoxy)cyclohexyl]-6-{[2′-(5-oxo-4,5-dihydro-1,2,4-oxadiazol-3-yl)biphenyl-4-yl]methyl}-7-propyl[1,2,4]triazolo[1,5-a]pyrimidin-5(4H)-one], the half-maximal inhibitory concentration (IC50) at human AT1 receptor amounted to 1.6 nM. Moreover, the activation at 1 µM at human PPARγ came out at 40%.
